Patent US20080095822A1, “Active Substance Delivery System Comprising A Hydrogel Atrix And Microcarriers” (UNIVERSITE DE LIEGE, priority 2004, published 2008)

Experiment: release of LNG from PHEMA hydrogel matrix into purified water (HPLC-UV)
Format: physicochemical
Conditions: LNG directly in matrix, after 10 days, purified water 37° C.

C#C[C@]1(O)CC[C@H]2[C@@H]3CCC4=CC(=O)CC[C@@H]4[C@H]3CC[C@@]21CC [LNG, levonorgestrel]
release rate after stabilisation: around 10 μg/day
